In patent publication US6737383B1, “Herbicidal oxadiazolidines” (priority 1999, dated 2004):

Legend:
[1] = system: blackgrass; assay: Test B pre/postemergence blackgrass; type: in vivo, Alopecurus myosuroides
Method in brief: (§1)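 Response is a visual 0-to-10 score relative to untreated plants, where 0 means no effect and 10 means complete control, taken twelve to sixteen days after application. Treatments went onto soil at planting and onto foliage of 1- to 4-leaf plants, using a surfactant-containing non-phytotoxic solvent.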

[2] = system: wild oat; assay: Test B pre/postemergence wild oat; type: in vivo, Avena fatua
Method in brief: as §1

[3] = system: rice; assay: Test B flood test rice; type: in vivo, Oryza sativa
Method in brief: (§2)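 Each value is a visual injury score relative to controls, with 10 meaning complete control and 0 no effect. Evaluation took place twelve to sixteen days after the 2-leaf-stage plants were treated and kept in the greenhouse.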

[4] = system: smallflower flatsedge; assay: Test B flood test smallflower flatsedge; type: in vivo, Cyperus difformis
Method in brief: as §2

[5] = system: bamyardgrass; assay: Test B flood test barnyardgrass; type: in vivo, Echinochloa crus-galli
Method in brief: as §2

[6] = system: winter wheat; assay: Test E winter wheat; type: in vivo, Triticum aestivum; settings: Postemergence
Method in brief: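 For postemergence, plants at the 1- to 4-leaf stage, in a 60:40 mix of sandy loam and potting mix, treated with compound formulated in a surfactant-containing non-phytotoxic solvent. Visual assessment versus untreated controls followed roughly 21–28 days in the greenhouse.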

[7] = system: blackgrass; assay: Test E blackgrass; type: in vivo, Alopecurus myosuroides; settings: Preemergence
[8] = system: green foxtail; assay: Test E green foxtail; type: in vivo, Setaria viridis; settings: Preemergence
[9] = system: Italian ryegrass; assay: Test E Italian ryegrass; type: in vivo, Lolium multiflorum; settings: Preemergence
[10] = system: winter wheat; assay: Test E winter wheat; type: in vivo, Triticum aestivum; settings: Preemergence
[11] = system: wild oat; assay: Test E wild oat; type: in vivo, Avena fatua; settings: Preemergence
[12] = system: winter barley; assay: Test E winter barley; type: in vivo, Hordeum vulgare; settings: Preemergence
[13] = Postemergence, Rate 62 g/ha, scale 0 to 10, 0 is no effect, 10 is complete control
[14] = Postemergence, Rate 250 g/ha, scale 0 to 10, 0 no effect, 10 complete control
[15] = Preemergence, Rate 62 g/ha, scale 0 to 10 (0 no effect, 10 complete control)
[16] = Preemergence, Rate 125 g/ha, scale 0 to 10 (0 no effect, 10 complete control)
[17] = Preemergence, Rate 250 g/ha, scale of 0 to 10 where 0 is no effect and 10 is complete control
[18] = Preemergence, Rate 500 g/ha, scale 0 (no effect) to 10 (complete control)
[19] = Rate 125 g/ha, Postemergence, scale 0 to 10, 0 no effect, 10 complete control
[20] = Rate 500 g/ha, Postemergence, scale 0 to 10, 0 no effect, 10 complete control
[21] = Rate 125 g/ha, Postemergence section (flood test species), scale 0 to 10, 0 no effect, 10 complete control
[22] = Rate 500 g/ha, listed under Postemergence (flood test species), scale 0 to 10, 0 no effect, 10 complete control
[23] = flood test, listed under Postemergence, Rate 250 g/ha, scale 0 to 10, 0 no effect, 10 complete control
[24] = Rate 500 g/ha, 0 to 100 scale where 0 is no effect and 100 is complete control
[25] = Rate 1000 g/ha, 0 to 100 scale where 0 is no effect and 100 is complete control
[26] = Postemergence, Rate 125 g/ha, scale of 0 to 10 where 0 is no effect and 10 is complete control
[27] = Preemergence, Rate 125 g/ha, 0 is no effect, 10 is complete control
[28] = Rate 31 g/ha, 0 to 100 scale, 0 no effect, 100 complete control
[29] = Rate 62 g/ha, 0 to 100 scale, 0 no effect, 100 complete control
[30] = Preemergence, Rate 62 g/ha, scale of 0 to 10 where 0 is no effect and 10 is complete control
[31] = Preemergence, Rate 250 g/ha, scale 0 to 10, 0 is no effect, 10 is complete control
[32] = Preemergence, Rate 500 g/ha, scale of 0 to 10 where 0 is no effect and 10 is complete control
[33] = Rate 62 g/ha, Postemergence, scale of 0 to 10 where 0 is no effect and 10 is complete control
[34] = Rate 125 g/ha, Postemergence, scale 0 to 10
[35] = Rate 62 g/ha, headed Pre-emergence (flood test species), scale 0 to 10 (0 no effect, 10 complete control)
[36] = Rate 125 g/ha, Pre-emergence, flood test species, scale 0 to 10 where 0 is no effect and 10 is complete control
[37] = Rate 250 g/ha, Pre-emergence, flood-test species, scale 0 to 10, 0 is no effect, 10 is complete control
[38] = Rate 500 g/ha, headed Pre-emergence (flood test species), scale 0 to 10 (0 no effect, 10 complete control)

Cc1ccccc1-n1c(=O)on(C(=O)N(c2cc(F)cc(F)c2)C(C)C)c1=O [Compound 67]
40: Plant response rating, Wheat (winter) ([6]; Rate 1000 g/ha, 0 to 100 scale, 0 is no effect and 100 is complete control) | Plant response rating, Blackgrass [7, 25] | Plant response rating, I. Ryegrass ([9]; Rate 250 g/ha, 0 to 100 scale) | Plant response rating, Wild oat [11, 24] | Plant response rating, Barley (winter) [12, 24] | Plant response rating, Barley (winter) [12, 25]
0: Blackgrass plant response rating [1, 13] | Blackgrass plant response rating [1, 14] | Blackgrass plant response rating [1, 15] | Plant response rating, Blackgrass [1, 16] | Blackgrass plant response rating [1, 19] | Blackgrass plant response rating [1, 20] | Wild oats plant response rating [2, 13] | Wild oats plant response rating [2, 14] | Wild oats plant response rating [2, 15] | Plant response rating, Wild oats [2, 16] | Plant response rating, Wild oats [2, 17] | Wild oats plant response rating [2, 19] | Wild oats plant response rating [2, 20] | Rice plant response rating [3, 13] | Rice plant response rating [3, 21] | Rice plant response rating [3, 22] | Rice plant response rating [3, 23] | S. Flatsedge plant response rating [4, 13] | S. Flatsedge plant response rating [4, 21] | S. Flatsedge plant response rating [4, 22] | S. Flatsedge plant response rating [4, 23] | Barnyardgrass plant response rating [5, 13] | Barnyardgrass plant response rating [5, 21] | Barnyardgrass plant response rating [5, 22] | Barnyardgrass plant response rating [5, 23]
50: Plant response rating, I. Ryegrass [9, 25] | Plant response rating, Wild oat [11, 25]
2: Plant response rating, Blackgrass [1, 17] | Blackgrass plant response rating [1, 18] | Wild oats plant response rating [2, 18]
20: Plant response rating, Wheat (winter) ([6]; Rate 250 g/ha, 0 to 100 scale (0 no effect, 100 complete control)) | Plant response rating, Blackgrass [7, 24] | Plant response rating, Wheat (winter) [10, 25] | Plant response rating, Barley (winter) ([12]; Rate 250 g/ha, 0 to 100 scale)
55: Plant response rating, Green foxtail [8, 24]
30: Plant response rating, Wheat (winter) ([6]; Rate 500 g/ha, 0 to 100 scale, 0 no effect, 100 complete control) | Plant response rating, Green foxtail ([8]; Rate 250 g/ha, 0 to 100 scale) | Plant response rating, I. Ryegrass [9, 24]
10: Plant response rating, Blackgrass ([7]; Rate 250 g/ha, 0 to 100 scale) | Plant response rating, Wheat (winter) ([10]; Rate 250 g/ha, 0 to 100 scale) | Plant response rating, Wheat (winter) [10, 24]
60: Plant response rating, Green foxtail [8, 25]

CCCn1c(=O)on(C(=O)N(c2ccc(F)cc2)C(C)C)c1=O [Compound 91]
2: Wild oats plant response rating [2, 26]
3: Plant response rating, Wild oats ([2]; Rate 250 g/ha, Postemergence, scale 0 to 10, 0 is no effect, 10 is complete control)
1: Wild oats plant response rating [2, 13]
5: Wild oats plant response rating [2, 20]
80: Plant response rating, Green foxtail [8, 29]
8: Blackgrass plant response rating [1, 13] | Blackgrass plant response rating [1, 26] | Blackgrass plant response rating [1, 14] | Blackgrass plant response rating [1, 20] | Wild oats plant response rating [2, 15]
0: Plant response rating, Wheat (winter) [6, 28]
20: Plant response rating, Blackgrass [7, 28] | Plant response rating, Barley (winter) [12, 28]
60: Plant response rating, Blackgrass [7, 29] | Plant response rating, Green foxtail [8, 28] | Plant response rating, Wild oat [11, 29]
9: Wild oats plant response rating (0 to 10 scale) [2, 27]
40: Plant response rating, I. Ryegrass [9, 28] | Plant response rating, I. Ryegrass [9, 29] | Plant response rating, Wheat (winter) [10, 29] | Plant response rating, Wild oat [11, 28] | Plant response rating, Barley (winter) [12, 29]
10: Blackgrass plant response rating [1, 15] | Plant response rating, Blackgrass [1, 16] | Plant response rating, Blackgrass [1, 17] | Blackgrass plant response rating [1, 18] | Plant response rating, Wild oats [2, 17] | Wild oats plant response rating [2, 18] | Plant response rating, Wheat (winter) ([6]; Rate 62 g/ha, 0 to 100 scale) | Plant response rating, Wheat (winter) [10, 28]

CCc1cccc(C)c1-n1c(=O)on(C(=O)N(c2ccc(F)cc2)C(C)C)c1=O [Compound 201]
60: Plant response rating, I. Ryegrass [9, 24]
50: Plant response rating, Blackgrass [7, 24] | Green foxtail plant response rating (0 to 100 scale) ([8]; Rate 250 g/ha) | I. Ryegrass plant response rating (0 to 100 scale) ([9]; Rate 250 g/ha) | Wild oat plant response rating (0 to 100 scale) ([11]; Rate 250 g/ha)
4: Blackgrass plant response rating [1, 31] | Blackgrass plant response rating [1, 18] | Plant response rating, Blackgrass [1, 32] | Blackgrass plant response rating ([1]; Rate 500 g/ha, Postemergence, scale 0 to 10)
7: S. Flatsedge plant response rating ([4]; Rate 500 g/ha, Pre-emergence, flood test species, scale 0 to 10 (0 no effect, 10 complete control))
0: Blackgrass plant response rating [1, 30] | Blackgrass plant response rating (0 to 10 scale) [1, 27] | Blackgrass plant response rating [1, 33] | Blackgrass plant response rating [1, 34] | Plant response rating (0 to 10; 0 is no effect, 10 is complete control), Blackgrass ([1]; Rate 250 g/ha, Postemergence) | Wild oats plant response rating [2, 30] | Wild oats plant response rating [2, 18] | Wild oats plant response rating [2, 33] | Wild oats plant response rating [2, 34] | Plant response rating (0 to 10; 0 is no effect, 10 is complete control), Wild oats ([2]; Rate 250 g/ha, Postemergence) | Rice plant response rating [3, 35] | Rice plant response rating [3, 36] | Rice plant response rating [3, 37] | Plant response rating, Rice [3, 38] | S. Flatsedge plant response rating [4, 35] | S. Flatsedge plant response rating [4, 36] | S. Flatsedge plant response rating [4, 37] | Barnyardgrass plant response rating [5, 35] | Barnyardgrass plant response rating [5, 36] | Barnyardgrass plant response rating [5, 37] | Barley (winter) plant response rating (0 to 100 scale) ([12]; Rate 250 g/ha)
5: Plant response rating, Wild oats [2, 32]
9: Plant response rating, Barnyardgrass [5, 38]
20: Plant response rating, Barley (winter) [12, 24]
40: Wheat (winter) plant response rating (0 to 100 scale) ([10]; Rate 250 g/ha) | Plant response rating, Wheat (winter) [10, 24] | Plant response rating, Wild oat [11, 24]
3: Wild oats plant response rating [2, 31]
65: Plant response rating, Green foxtail [8, 24]
30: Blackgrass plant response rating (0 to 100 scale) ([7]; Rate 250 g/ha)
